Columns and labels:
[1] = test system: Human umbilical vein endothelial cells (HUVEC); assay: Measurement of cell migration (CytoSelect 24-well Cell Migration Assay); type: cell-based
Protocol: Measurement of cell migration was carried out in the following manner using CytoSelect 24-well Cell Migration Assay (CBA-100, Cell Biolabs) kits. First, sample solutions were prepared by dissolving 2-Cl—C.OXT-A in physiological saline so as to achieve predetermined concentrations (0.1, 0.5, 1 mmol/l). Then, the sample solutions containing 2-Cl—C.OXT-A at the predetermined concentrations respectively were added to HuMedia-EB2 media (Kurabo) to which 2 v/v % inactivated fetal bovine serum (FBS) had been added so that their concentrations became 10 v/v %. Thus, cell migration media were prepared. The final concentrations of 2-Cl—C.OXT-A in the cell migration media were 10, 50, and 100 μmol/l.
Human umbilical vein endothelial cells (HUVEC) were suspended in a HuMedia-EB2 medium (Kurabo) to which 2 v/v % inactivated fetal bovine serum (FBS) had been added at a density of 0.5×10^6 cells/ml. Thus, a cell suspension was prepared. 300 μl of the cell suspension was added to an upper compartment (i.e., in an insert) of a polycarbonate membrane plate provided in the kit, and 500 μl of the cell migration medium was added to a lower compartment (i.e., in a well) of the plate. Then, the cells were cultured at 37° C. for 24 hours. After the completion of the culture, the membrane on the inner bottom face of the insert was wiped out with a cotton swab to remove the cells on the membrane. Then, cells having migrated to the rear face of the membrane (the membrane on the outer bottom face of the insert) were stained using a staining solution provided in the kit, and then photographed from below the insert. After the photographing, the dye was extracted with an extracting solution provided in the kit, and the absorbance at 560 nm was measured using a microplate reader. As a control, a HuMedia-EB2 medium (Kurabo) to which 2 v/v % inactivated fetal bovine serum (FBS) had been added was used instead of the cell migration medium to carry out the culture, and the cells were stained and the absorbance was measured in the same manner as in the above. Then, using the above equation (I), the relative absorbance in the culture using each of the cell migration media containing 2-Cl—C.OXT-A at the predetermined concentrations was calculated.

[2] = test system: cornea of Japanese white rabbit; assay: Angiogenesis test, rabbit cornea assay; type: in vivo; conditions: 16 mmol/l in 30 μl of physiological saline injected to cornea, observed after 7 days
Protocol: In the present example, the effect of 2-Cl—C.OXT-A of Example 1 on angiogenesis was examined by a rabbit cornea assay.
A sample was prepared by adding 2-Cl—C.OXT-A to 30 μl of physiological saline so that its concentration became 16 mmol/l. The sample was injected to a cornea of Japanese white rabbit (male, 2.8 kg) under sevoflurane anesthesia. The cornea was observed after a lapse of 7 days.

[3] = test system: p38; assay: p38 activation (phosphorylation) immunoblot in HUVEC; type: cell-based, human; conditions: 100 μmol/l; 0 to 60 minutes
Protocol: (§1) First, to a HuMedia-EB2 medium (Kurabo) to which 2 v/v % inactivated fetal bovine serum (FBS) had been added, 2-Cl—C.OXT-A was added so that its concentration became 100 μmol/l. Thus, a medium was prepared. Using the medium, human umbilical vein endothelial cells (HUVEC) were cultured for predetermined periods (0, 10, 20, 30, 45, and 60 minutes).
(§2) After the culture, cells were collected. The collected cells were lysed by adding a cell lysis buffer (SDS-lysis buffer) thereto, and heat-denatured at 95° C. for 5 minutes. The solubilized protein in an amount corresponding to 5 v/v % of the heat-denatured cell lysate was subjected to electrophoresis using 10% SDS-polyacrylamide gel, whereby the solubilized protein was transferred onto a nitrocellulose membrane (Amersham Biosciences). […]
(§3) The enzymes were visualized with SuperSignal (registered trademark) West Pico Chemiluminescent Substrate (Pierce), and detected by being exposed to RX—U X-ray film (FUJIFILM Corporation). From the detected bands, the respective phosphoenzymes and total enzymes were quantified using an NIH image software. Furthermore, the relative value (−fold) of each phosphoenzyme was calculated by substituting the measured value of the phosphoenzyme into the following equation (III).

[4] = test system: JNK; assay: JNK activation (phosphorylation) immunoblot in HUVEC; type: cell-based, human; conditions: 100 μmol/l; 0 to 60 minutes
Protocol: as §1, §2, §3

Compound: Nc1nc(Cl)nc2c1ncn2C1CC(CO)C1CO (stereo not drawn) [2-Cl—C.OXT-A, 6-amino-2-chloro-9-[trans-trans-2,3-bis(hydroxymethyl)cyclobutyl]purine]
- stained area (cell migration photographs) ([1]; final concentration 10 μmol/l to 100 μmol/l, 24 hours, versus control): larger than that in the control
- relative absorbance (cell migration) ([1]; final concentration 50 μmol/l): 2.1
- cell migration promoting-activity compared with VEGF ([1]; final concentration 50 μmol/l, VEGF 10 ng/ml): higher than that in Comparative Example 7
- relative absorbance (cell migration) ([1]; final concentration 10 to 100 μmol/l, versus control): higher than that of the control
- migration promoting-activity compared with physiological saline ([1]; final concentrations 50 and 100 μmol/l, p<0.02): significantly higher than that in Comparative Example 8
- angiogenesis in the cornea [2]: considerable angiogenesis
- amount of pp 38 [3]: not changed
- amount of pJNK [4]: not changed

— patent publication US20110230659A1, “CYCLOBUTYL PURINE DERIVATIVE, ANGIOGENESIS PROMOTING AGENT, LUMEN FORMATION PROMOTING AGENT, NEUROCYTE GROWTH PROMOTING AGENT, AND DRUG” (NATIONAL UNIVERSITY CORPORATION KAGAWA UNIVERSITY, priority 2008, published 2011)
